Experimental data taken from publication PMC5797143, “Epigenetic modulation of inflammation and synaptic plasticity promotes resilience against stress in mice” (Nature Communications, 2018).
pEC50, pIC50: −log10 of the molar value.

How the values were obtained:
[1] = tested on: pro-inflammatory cytokines; assay: Secreted cytokines of PBMCs following LPS stimulation (multiplex); type: cell-based, mouse
Protocol: To investigate how DHCA may attenuate IL-6 generation, we tested the effect of DHCA on Toll-like receptor-4 mediated signaling pathways. PBMCs were pretreated with DHCA and stimulated with LPS using the same protocol as during screening. Samples were taken at 0, 30 min, 60 min, 6 h and 16 h following LPS stimulation and cell lysates were subjected to a multiplex ELISA assay. […] Based on evidence that DNA methylation at a single CpG in the human IL-6 promoter region effectively alters IL-6 expression, we next tested whether DHCA can modulate IL-6 gene expression through methylation mechanisms. We treated PBMC cells with DHCA and measured the expression of enzymes essential for DNA methylation/demethylation. […] To investigate how methylation influences IL-6 gene expression, we employed the CpG-free luciferase reporter system. We cloned a ~280 bp CpG rich DNA segment from the mouse IL-6 promoter into a promoterless CpG-free reporter construct and transfected into N2a cells. We found the CpG-rich IL-6 promoter segment presented no inherent promoter activity as reflected by no differences in luciferase activity compared to the control construct (Fig. 2f). […] To test whether DHCA may influence the expression of other pro-inflammatory factors, we measured the level of secreted cytokines following LPS stimulation (Supplementary Fig. 3). […]

[2] = tested on: DNA-methyltransferase 1 (DNMT1); assay: Expression of DNA methylation/demethylation enzymes in PBMCs; type: cell-based, mouse
Protocol: To investigate how DHCA may attenuate IL-6 generation, we tested the effect of DHCA on Toll-like receptor-4 mediated signaling pathways. PBMCs were pretreated with DHCA and stimulated with LPS using the same protocol as during screening. Samples were taken at 0, 30 min, 60 min, 6 h and 16 h following LPS stimulation and cell lysates were subjected to a multiplex ELISA assay. […] Based on evidence that DNA methylation at a single CpG in the human IL-6 promoter region effectively alters IL-6 expression, we next tested whether DHCA can modulate IL-6 gene expression through methylation mechanisms. We treated PBMC cells with DHCA and measured the expression of enzymes essential for DNA methylation/demethylation. […] To investigate how methylation influences IL-6 gene expression, we employed the CpG-free luciferase reporter system. […] To test whether DHCA may influence the expression of other pro-inflammatory factors, we measured the level of secreted cytokines following LPS stimulation (Supplementary Fig. 3).
Total RNA from MSN-enriched cultures or brain NAc was isolated using the RNeasy Mini Kit (Qiagen, Valencia, CA, USA) and reverse transcribed. Gene expression was measured in four replicates by quantitative RT-PCR using Maxima SYBR Green master mix (Fermentas) in ABI Prism 7900HT. […]

[3] = tested on: CpG-rich sequences of mouse IL-6 promoter and introns 1, 3; assay: CpG-free luciferase reporter with IL-6 promoter/intron CpG-rich segments in N2a cells; type: cell-based; settings: 24 h
Protocol: To investigate how DHCA may attenuate IL-6 generation, we tested the effect of DHCA on Toll-like receptor-4 mediated signaling pathways. PBMCs were pretreated with DHCA and stimulated with LPS using the same protocol as during screening. Samples were taken at 0, 30 min, 60 min, 6 h and 16 h following LPS stimulation and cell lysates were subjected to a multiplex ELISA assay. […] Based on evidence that DNA methylation at a single CpG in the human IL-6 promoter region effectively alters IL-6 expression, we next tested whether DHCA can modulate IL-6 gene expression through methylation mechanisms. We treated PBMC cells with DHCA and measured the expression of enzymes essential for DNA methylation/demethylation. […] To investigate how methylation influences IL-6 gene expression, we employed the CpG-free luciferase reporter system. We cloned a ~280 bp CpG rich DNA segment from the mouse IL-6 promoter into a promoterless CpG-free reporter construct and transfected into N2a cells. We found the CpG-rich IL-6 promoter segment presented no inherent promoter activity as reflected by no differences in luciferase activity compared to the control construct (Fig. 2f). […] We then cloned CpG rich DNA segments from IL-6 introns 1, 3 or 4 into the CpG-free luciferase reporter construct with a minimal EF1 promoter and no enhancer activity. […] In contrast, the CpG-rich region of IL-6 intron 4 presented no observable enhancer activity (Fig. 2g). […] To test whether DHCA may influence the expression of other pro-inflammatory factors, we measured the level of secreted cytokines following LPS stimulation (Supplementary Fig. 3).
CpG-rich motif from mouse IL-6 promoter and intron 1, intron 3, and intron 4 were cloned into basic (no promoter or enhancer) or promoter (minimal EF1 promoter with no enhancer) pCpG-free Lucia plasmid (InvivoGen) using In-Fusion Cloning Kit (Clontech Laboratories). Plasmids were prepared in E. coli GT115 cells and expressed in N2A neuoblastoma cells using lipofectamine 2000 (ThermoFisher) according to manufacturer’s instruction. Following overnight recovery, cells were subjected to 5 µM of methylation inhibitor 5-Aza-2′-deoxycytidine (AZA-DC) or DHCA treatment. Twenty-four hours later, 10 µl of medium was incubated with 50 µl of QUANTI-Luc luciferase substrate for luciferase activity assessment.

IL-6 = assay: LPS-induced IL-6 production in PBMCs (screening, dose response); type: cell-based, mouse
Description: BDPP contains a variety of polyphenols. Orally consumed polyphenols are typically bioavailable in various organs and tissues as metabolites (phase II polyphenol conjugates and phenolic acids) following xenobiotic metabolism and gastrointestinal microbiome fermentation. It is possible that some metabolites may counteract the positive effect of the others. Therefore, if supplied as BDPP, the overall benefits might be reduced due to potential ‘cancellation’ effects. By identifying individual metabolites that selectively target key pathological mechanisms (e.g., Rac1 and IL-6) we can greatly improve the efficacy. We and others recently identified 21 BDPP-derived phenolic metabolites that accumulate in blood and/or in the CNS (14 polyphenolic metabolites and 7 phenolic acids, Supplementary Table 1)[25], [28], [33], among which 14 are currently accessible, [34]. We initiated a high-throughput screen of these metabolites for their ability to modulate IL-6 and Rac1. Peripheral blood mononuclear cells (PBMCs) isolated from C57BL/6 mice were pretreated with plasma bioavailable metabolites (Supplementary Table 1) for 16 h followed by stimulation with lipopolysaccharide (LPS) for 16 h. […] In parallel studies, we screened 9 brain bioavailable metabolites using E18 MSN-enriched primary culture.
Whole blood from mice was mixed with complete RPMI media and laid over the Ficoll-Paque Plus (GE Healthcare, Sweden), centrifuged at 2200 r.p.m. for 15 min. The buffy coat containing PBMCs were isolated, washed once with BEP (0.5% BSA, 2 mM EDTA in PBS) and plated out in a 24-well plate at 5 × 10^5/well in culture medium RPMI-1640 supplemented with 20% horse serum, 10% FBS, 2 mM L-glutamine, 25 mM Hepes and 100 U/ml penicillin/streptomycin. PBMCs were treated with various phenolic acids for 16 h and challenged with 7.5 µg/ml LPS. Supernatant was collected by centrifugation following 16 h of LPS stimulation and the levels of IL-6 were measured using the Mouse IL-6 Quantikine ELISA Kit from R & D System.

[4] = tested on: enzymes involved in de novo methylation and demethylation; assay: Expression of de novo methylation/demethylation enzymes in MSN-enriched primary culture; type: cell-based, mouse; settings: MSN-enriched primary cultures
Description: Stress-induced reduction of Rac1 expression is associated with a repressed chromatin state surrounding the promoter region of Rac1 in the NAc[11]. Since Mal-gluc can cross the BBB, we hypothesized that Mal-gluc may promote Rac1 expression, in part, by modulating chromatin acetylation. We first assessed the effect of Mal-gluc on HDACs that play key roles in chromatin deacetylation. […] Using site directed quantitative chromatin immunoprecipitation (qCHIP), we examined the permissive histone H3 acetylation (AcH3) in Mal-gluc treated MSN-enriched primary cultures.
Total RNA from MSN-enriched cultures or brain NAc was isolated using the RNeasy Mini Kit (Qiagen, Valencia, CA, USA) and reverse transcribed. Gene expression was measured in four replicates by quantitative RT-PCR using Maxima SYBR Green master mix (Fermentas) in ABI Prism 7900HT. Primer sequences are listed in Supplementary Table 2. Mouse hypoxanthine phosphoribosyltransferase (HPRT) expression level was used as an internal control. Data were normalized using the 2^-ΔΔCt method. Levels of target gene mRNAs were expressed relative to those in control cultures or mice and plotted in GraphPad Prism.

Row | Structure (SMILES) | cytokine expression profile ([1]; PBMCs in the absence of LPS stimulation) | LPS-induced production of cytokines (GM-CSF, IL-1β, IL-12 p40 and p70, IL-17, MCP-1) ([1]; PBMCs with LPS stimulation) | expression of DNMT1 [2] | luciferase (enhancer) activity, IL-6 intron 1 [3] | luciferase (enhancer) activity, IL-6 intron 3 [3] | primary screening, LPS-induced IL-6 production (IL-6; 14 plasma bioavailable metabolites screened) | pIC50 (IL-6; Mus musculus, PBMC, PBMCs pretreated 16 h, then LPS 16 h, read-out: calculated IC50, reducing LPS-induced IL-6 production) | pEC50 (IL-6; Mus musculus, PBMC, dose response in PBMCs following LPS stimulation, read-out: EC50 (IL-6 response), Fig. 2b) | expression of enzymes of de novo methylation and demethylation [4]
1 | O=C(O)CCc1ccc(O)c(O)c1 [DHCA, 3(3,4-dihydroxy-phenyl) propionic acid] | did not influence cytokine expression profile | significantly reduced LPS-induced production of cytokines | significantly reduced | partially attenuated | totally abolished | most effective in reducing LPS-induced IL-6 production | 4.75 | 4.75 | 
2 | COc1cc(-c2[o+]c3cc(O)cc(O)c3cc2O[C@@H]2O[C@H](CO)[C@@H](O)[C@H](O)[C@H]2O)cc(OC)c1O [Mal-gluc] |  |  |  |  |  |  |  |  | did not affect
